Source: US12534444B2, “Treatment of cancer/inhibition of metastasis” (Celex Oncology Innovations Limited, priority 2010, dated 2026)

Experiments:
MDA-MB-231 cells [1] = experiment: Cell growth (proliferation) assay (MTT); assay type: cell-based, human; conditions: for PROLIFERATION (24 hours) / growth (number of cells): Normoxia; for growth (number of cells): 48 hours
Description: Cells were plated at 2×10^4 cells/ml in 24-well plates (Becton-Dickinson) and allowed to settle overnight. The cells were then treated for the required time of incubation (24 hours+), with medium changes every 24 hours. At the end of the treatment, the medium was removed, and this was followed by the colorimetric 3-[4,5-dimethylthiazol-2-yl]-2,5-diphenyltetrazolium bromide (MTT) assay (Grimes et al., 1995). Briefly, 0.1 ml MTT (5 mg/ml made up in the growth medium) and 0.4 ml growth medium was added in each well and the plate was incubated for 3-4 hours at 37° C. The medium was then removed from the chambers and replaced with 0.5 ml dimethyl sulfoxide (DMSO) and 0.063 ml glycine buffer (0.1 M glycine and 0.1 M NaCl; pH 10.5). Absorbance at 570 nm was determined 15 minutes after the addition of the glycine buffer. Results were calculated as means of nine repeats of each of the treatment vs. control spectrophotometer readings from individual invasion wells.
(§1) With the exception of single cell adhesion tests, which are discussed in the following paragraph, experiments were carried out under either; • (i) normal normoxic conditions ([…], 5% carbon dioxide), or • (ii) following 24 hours hypoxic pre-treatment (2% O2, 5% CO2, 93% N2) continued during the assays.

Mat-LyLu cells = experiment: Transverse migration assay (Transwell); assay type: cell-based, rat
Description: (§2) This assay was used to represent the ability of cells to migrate as they intra/extravasate. […] The insert 602 has a migration filter membrane 605 in its base with 8 μm pores 606 extending therethrough.
(§3) Cells 607 were plated at a density of 2×10^4/ml on the filter membrane 605 and placed under a growth medium 608 containing 1% foetal bovine serum (FBS). A chemotactic gradient was created across the filter membrane 605 by placing growth medium 609 containing 10% FBS in the lower section 604 of the chamber.
(§4) Cells were allowed to migrate across the filter membrane 605 over a period of 24 hours, cells migrating and adhering to the underside of the filter membrane 605.
(§5) At the end of each assay, non-migrated cells were removed from the upper surface of the insert 602 with two different swabs
(§6) The number of cells migrating to the underside of the insert 602 was determined using crystal violet staining. Migrated cells were fixed for 15 minutes with ice-cold methanol. Then 0.5% crystal violet (in 25% methanol) was added for 15 minutes. The inserts were swabbed again and then washed in water and allowed to dry. Cells were then counted using twelve separate fields of view per insert (×200 magnification).
as §1

MDA-MB-231 cells [2] = experiment: Transverse migration assay (Transwell); assay type: cell-based, human
Description: as §2, §3, §4, §5, §6, §1

MDA-MB-231 cells [3] = experiment: Single-cell adhesion assay (SCAMA, detachment negative pressure); assay type: cell-based, human
Description: FIG. 4 is a schematic illustration of the single-cell adhesion measurement apparatus (SCAMA) first described in the paper by Palmer et al. (2008). Human breast cancer cells from the MDA-MB-231 cell line were plated at a density of 2.5×10^4 cells/ml and left to settle in a cell culture dish 401 for 48 hours prior to measurements. Medium was removed and 2 ml of the drug under study was applied for 10 minutes. Adhesion was measured using a glass micropipette 402 connected to a vacuum pump 403 via plastic tubing 404. The tip of the micropipette was drawn to about 20 μm (range, 17-24 μm) tip diameter. The vacuum pump was used to create negative pressure inside a reservoir 405 so that the negative pressure could be applied to the tip of the micropipette by pressing the thumb to the open end of a sealable T-piece 406. […] The pressure was measured using a digital manometer 409 connected to a computer 410 via a RS232 cable 411. Using a micromanipulator 412, the micropipette 402 was positioned on the periphery of a single cell. […] The negative pressure required to detach the cell was recorded on the computer as a pressure spike. The peak of the spike (“detachment negative pressure” (DNP)) was used as a measure of the cell's adhesiveness. Using this technique, several recordings could be made from a single dish within minutes. […] In order to test for the reversibility of a given effect, the pharmacological agent was washed off, fresh medium was added and the plate was incubated for a further 10 minutes prior to re-measurement. Each treatment was carried out on at least two dishes of cells, at least 100 cells per dish were measured, and the experiment was repeated three times (with corresponding controls). In the single cell adhesion experiments, hypoxia was induced chemically by application of hydrogen peroxide (1-500 μM) for 24 hours.

MDA-MB-231 cells [4] = experiment: Cell viability assay (trypan blue); assay type: cell-based, human; conditions: Normoxia, 48 hours
Description: Cells were seeded at a density of 5×10^4 cells/ml in 35 mm Falcon tissue culture dishes. After treatment with a given drug, the medium was removed and replaced with 800 μl of growth medium and 200 μl 0.4% trypan blue (Sigma, Dorset, UK) and incubated for 10 minutes in the incubator. The trypan blue was removed and the cells were washed once with 3 ml growth medium. For each treatment, cells from 30 random fields of view were counted under 100× magnification. The number of dead cells, stained blue, was counted in each field of view. The data were expressed as percentages of living cells out of the total number of cells in given fields of view. The percentages were averaged and differences between control and treatment were compared from at least three independent experiments.
as §1

COc1ccccc1OCC(O)CN1CCN(CC(=O)Nc2c(C)cccc2C)CC1 (stereo not shown) [ranolazine]
growth (MDA-MB-231 cells [1]; Hypoxia, same concentrations (1 μM, 10 μM and 100 μM), results not shown): did not affect the growth | PROLIFERATION (24 hours) (MDA-MB-231 cells [1]; 1 μM): no significant difference | PROLIFERATION (24 hours) (MDA-MB-231 cells [1]; 1 μM, listed as RANOLAZINE): no effect | growth (number of cells) (MDA-MB-231 cells [1]; 1 μM): no statistically significant difference | PROLIFERATION (24 hours) (MDA-MB-231 cells [1]; 10 μM): no significant difference | PROLIFERATION (24 hours) (MDA-MB-231 cells [1]; 10 μM, listed as RANOLAZINE): no effect | growth (number of cells) (MDA-MB-231 cells [1]; 10 μM): no statistically significant difference | PROLIFERATION (24 hours) (MDA-MB-231 cells [1]; 100 μM): no significant difference | PROLIFERATION (24 hours) (MDA-MB-231 cells [1]; 100 μM, listed as RANOLAZINE): no effect | growth (number of cells) (MDA-MB-231 cells [1]; 100 μM): no statistically significant difference | TRANSVERSE MIGRATION (Mat-LyLu cells; Hypoxia, 20 μM): reduced the transverse migration of the cells in a statistically significant way | TRANSVERSE MIGRATION (Mat-LyLu cells; Hypoxia, 20 μM, listed as RANOLAZINE): decreased | TRANSVERSE MIGRATION (Mat-LyLu cells; Hypoxia, 50 μM): reduced the transverse migration of the cells in a statistically significant way | TRANSVERSE MIGRATION (Mat-LyLu cells; Hypoxia, 50 μM, listed as RANOLAZINE): decreased | TRANSVERSE MIGRATION (Mat-LyLu cells; Hypoxia, 300 μM): reduced the transverse migration of the cells in a statistically significant way | TRANSVERSE MIGRATION (Mat-LyLu cells; Hypoxia, 300 μM, listed as RANOLAZINE): decreased | TRANSVERSE MIGRATION (Mat-LyLu cells; Normoxia, 20 μM): reduced the transverse migration | TRANSVERSE MIGRATION (Mat-LyLu cells; Normoxia, 20 μM, listed as RANOLAZINE): decreased | TRANSVERSE MIGRATION (Mat-LyLu cells; Normoxia, 50 μM): reduced the transverse migration | TRANSVERSE MIGRATION (Mat-LyLu cells; Normoxia, 50 μM, listed as RANOLAZINE): decreased | TRANSVERSE MIGRATION (Mat-LyLu cells; Normoxia, 300 μM): not statistically significant | TRANSVERSE MIGRATION (Mat-LyLu cells; Normoxia, 300 μM, listed as RANOLAZINE): no effect | potency on transverse migration compared with positive control TTX (Mat-LyLu cells; higher concentrations tested, TTX 1 μmol): more potent than the toxin (TTX) | TRANSVERSE MIGRATION (MDA-MB-231 cells [2]; Hypoxia, 1 μM): reduced the transverse migration of the cells in a statistically significant way | TRANSVERSE MIGRATION (MDA-MB-231 cells [2]; Hypoxia, 1 μM, listed as RANOLAZINE): decreased | TRANSVERSE MIGRATION (MDA-MB-231 cells [2]; Hypoxia, 10 μM): reduced the transverse migration of the cells in a statistically significant way | TRANSVERSE MIGRATION (MDA-MB-231 cells [2]; Hypoxia, 10 μM, listed as RANOLAZINE): decreased | TRANSVERSE MIGRATION (MDA-MB-231 cells [2]; Hypoxia, 100 μM): the reduction was not statistically significant | TRANSVERSE MIGRATION (MDA-MB-231 cells [2]; Hypoxia, 100 μM, listed as RANOLAZINE): decreased | TRANSVERSE MIGRATION (MDA-MB-231 cells [2]; Normoxia, 1 μM): reduced the transverse migration of the cells only slightly | TRANSVERSE MIGRATION (MDA-MB-231 cells [2]; Normoxia, 1 μM, listed as RANOLAZINE): increased | TRANSVERSE MIGRATION (MDA-MB-231 cells [2]; Normoxia, 10 μM): reduced the transverse migration of the cells only slightly | TRANSVERSE MIGRATION (MDA-MB-231 cells [2]; Normoxia, 10 μM, listed as RANOLAZINE): decreased | TRANSVERSE MIGRATION (MDA-MB-231 cells [2]; Normoxia, 100 μM): reduced the transverse migration of the cells only slightly | TRANSVERSE MIGRATION (MDA-MB-231 cells [2]; Normoxia, 100 μM, listed as RANOLAZINE): decreased | ADHESION (MDA-MB-231 cells [3]; Hypoxia (chemically induced, hydrogen peroxide 24 hours), 0.1 μM): increased | ADHESION (MDA-MB-231 cells [3]; Hypoxia (chemically induced, hydrogen peroxide 24 hours), 1 μM): continued to increase | ADHESION (MDA-MB-231 cells [3]; Hypoxia (chemically induced, hydrogen peroxide 24 hours), 1 μM, listed as RANOLAZINE): increased | ADHESION (MDA-MB-231 cells [3]; Hypoxia (chemically induced, hydrogen peroxide 24 hours), 10 μM): continued to increase | ADHESION (MDA-MB-231 cells [3]; Hypoxia (chemically induced, hydrogen peroxide 24 hours), 10 μM, listed as RANOLAZINE): decreased | ADHESION (MDA-MB-231 cells [3]; Hypoxia (chemically induced, hydrogen peroxide 24 hours), 100 μM): continued to increase | ADHESION (MDA-MB-231 cells [3]; Hypoxia (chemically induced, hydrogen peroxide 24 hours), 100 μM, listed as RANOLAZINE): no benefit | ADHESION (MDA-MB-231 cells [3]; Normoxia, 0.1 μM): no effect | ADHESION (MDA-MB-231 cells [3]; Normoxia, 0.5 μM): increased | ADHESION (MDA-MB-231 cells [3]; Normoxia, 1 μM): increased | ADHESION (MDA-MB-231 cells [3]; Normoxia, 10 μM): increased | ADHESION (MDA-MB-231 cells [3]; Normoxia, 20 μM): increased | ADHESION (MDA-MB-231 cells [3]; Normoxia, 100 μM): increased | effect on adhesion in hypoxia compared with normoxia (MDA-MB-231 cells [3]; before convergence at the higher drug concentrations): approximately 10 fold | CELL VIABILITY (MDA-MB-231 cells [4]; 1 μM): no effect | CELL VIABILITY (MDA-MB-231 cells [4]; 10 μM): no effect | CELL VIABILITY (MDA-MB-231 cells [4]; 100 μM): no effect

Nc1nc2ccc(OC(F)(F)F)cc2s1 [riluzole]
PROLIFERATION (24 hours) (MDA-MB-231 cells [1]; 1 μM): no effect | PROLIFERATION (24 hours) (MDA-MB-231 cells [1]; 10 μM): no effect | PROLIFERATION (24 hours) (MDA-MB-231 cells [1]; 100 μM): reduced the proliferation of the cells in a statistically significant way | PROLIFERATION (24 hours) (MDA-MB-231 cells [1]; 100 μM, listed as RILUZOLE): tail off | growth (number of cells) (MDA-MB-231 cells [1]; 100 μM): reduced the proliferation of the cells in a statistically significant way | TRANSVERSE MIGRATION (MDA-MB-231 cells [2]; Hypoxia, 1 μM): reduced the transverse migration in a statistically significant way | TRANSVERSE MIGRATION (MDA-MB-231 cells [2]; Hypoxia, 1 μM, listed as RILUZOLE): decreased | TRANSVERSE MIGRATION (MDA-MB-231 cells [2]; Hypoxia, 10 μM): reduced the transverse migration in a statistically significant way | TRANSVERSE MIGRATION (MDA-MB-231 cells [2]; Hypoxia, 10 μM, listed as RILUZOLE): decreased | TRANSVERSE MIGRATION (MDA-MB-231 cells [2]; Hypoxia, 100 μM): reduced the transverse migration in a statistically significant way | TRANSVERSE MIGRATION (MDA-MB-231 cells [2]; Hypoxia, 100 μM, listed as RILUZOLE): decreased | TRANSVERSE MIGRATION (MDA-MB-231 cells [2]; Normoxia, 1 μM): reduced the transverse migration of the cells in a statistically significant way | TRANSVERSE MIGRATION (MDA-MB-231 cells [2]; Normoxia, 1 μM, listed as RILUZOLE): decreased | TRANSVERSE MIGRATION (MDA-MB-231 cells [2]; Normoxia, 10 μM): no effect | TRANSVERSE MIGRATION (MDA-MB-231 cells [2]; Normoxia, 100 μM): reduced the transverse migration of the cells in a statistically significant way | TRANSVERSE MIGRATION (MDA-MB-231 cells [2]; Normoxia, 100 μM, listed as RILUZOLE): decreased | CELL VIABILITY (MDA-MB-231 cells [4]; 1 μM): no effect | CELL VIABILITY (MDA-MB-231 cells [4]; 10 μM): decreased the cell viability | CELL VIABILITY (MDA-MB-231 cells [4]; 10 μM, listed as RILUZOLE): cell death | CELL VIABILITY (MDA-MB-231 cells [4]; 100 μM): decreased the cell viability | CELL VIABILITY (MDA-MB-231 cells [4]; 100 μM, listed as RILUZOLE): cell death
